Reference: US20180271853A1, “Method of Use for Inhibitors of Epidermal Growth Factor Receptor Variant III” (METASTAT, INC., priority 2015, published 2018)

What was measured:
[1] = target: T1, phosphoY1173-EGFRviii expressed in U87MG tumor cells (Homo sapiens, UniProt P00533, DELINS30-297G); test: Inhibition of phosphoY1173-EGFRviii in U87MG tumor cells engineered to express EGFR-viii (in-cell ELISA); assay type: cell-based; settings: for activity against EGFR-viii: FIG. 1
T1 construct: expressed in transfected cells; host or cells: U87MG (ATCC), lentiviral infection, puromycin selection
Protocol: Cells stably expressing EGFR-WT or EGFR-viii were maintained in the presence of 0.5 ug/ml puromycin.
All EGFR inhibitors were purchased from Selleck Chemicals, Houston TX, at a concentration of 10 mM in DMSO. […] Serial dilution of compounds was prepared using DMSO at 100× the final concentration indicated and then diluted in cell media to the final concentration indicated.
Data are expressed as EC50 and were determined using an in-cell ELISA kit (Pierce).

EGFR-viii = EGFR-viii (Homo sapiens, UniProt P00533, DELINS30-297G); settings: Ji, Zhao et al., 2006; Vivanco, Robins et al., 2012; cited from earlier work
[2] = system: tumors expressing EGFR-viii; settings: cited from earlier work; for benefit for GBM in clinical studies: clinical studies evaluating reversible or covalent EGFR inhibitors in GBM

C=CC(=O)Nc1ccc2ncnc(Nc3ccc(OCc4cccc(F)c4)c(Cl)c3)c2c1 [AST-1306]
EC50 ([1]; in-cell ELISA, FIG. 1, read-out: EC50 against EGFR-viii): < 50 nM

C=CC(=O)Nc1cccc(Nc2nc(Nc3ccc(N4CCN(C(C)=O)CC4)cc3OC)ncc2C(F)(F)F)c1 [CO-1686]
activity against EGFR-viii [1]: weak activity

C=CC(=O)Nc1cccc(Oc2nc(Nc3ccc(N4CCN(C)CC4)cc3)ncc2Cl)c1 [WZ3146]
activity against EGFR-viii [1]: weak activity

C=CC(=O)Nc1cccc(Sc2nc(Nc3ccc(N4CCN(C)CC4)cc3)ncc2Cl)c1 [WZ8040]
activity against EGFR-viii [1]: weak activity

COc1cc2ncnc(Nc3ccc(F)c(Cl)c3)c2cc1NC(=O)/C=C/CN1CCCCC1 [dacomitinib]
inhibition of EGFR-viii (recent studies) (EGFR-viii): potent inhibitors of EGFR-viii

C#Cc1cccc(Nc2ncnc3cc(OCCOC)c(OCCOC)cc23)c1 [erlotinib]
benefit for GBM in clinical studies [2]: failed to demonstrate significant benefit

CS(=O)(=O)CCNCc1ccc(-c2ccc3ncnc(Nc4ccc(OCc5cccc(F)c5)c(Cl)c4)c3c2)o1 [lapatinib]
benefit for GBM in clinical studies [2]: failed to demonstrate significant benefit | cancer growth inhibition in clinical studies ([2]; clinical studies, GBM): insignificant cancer growth inhibition
